In patent publication US7442692B2, “Indanyl-piperazine compounds” (Les Laboratoires Servier, priority 2005, dated 2008):
Where a name gives a salt, the structure may show the parent alone.

Columns and labels:
[1] = target: T1, serotonin (5-HTT) reuptake site (Rattus norvegicus, UniProt P31652); experiment: Affinity for serotonin reuptake sites in the rat ([3H]-citalopram competition); assay type: binding; settings: rat frontal cortex membranes, read-out: pKi r5-HTT (converted)
T1 construct: from tissue; host or cells: rat frontal cortex membranes
T1 sequence (P31652 whole entry): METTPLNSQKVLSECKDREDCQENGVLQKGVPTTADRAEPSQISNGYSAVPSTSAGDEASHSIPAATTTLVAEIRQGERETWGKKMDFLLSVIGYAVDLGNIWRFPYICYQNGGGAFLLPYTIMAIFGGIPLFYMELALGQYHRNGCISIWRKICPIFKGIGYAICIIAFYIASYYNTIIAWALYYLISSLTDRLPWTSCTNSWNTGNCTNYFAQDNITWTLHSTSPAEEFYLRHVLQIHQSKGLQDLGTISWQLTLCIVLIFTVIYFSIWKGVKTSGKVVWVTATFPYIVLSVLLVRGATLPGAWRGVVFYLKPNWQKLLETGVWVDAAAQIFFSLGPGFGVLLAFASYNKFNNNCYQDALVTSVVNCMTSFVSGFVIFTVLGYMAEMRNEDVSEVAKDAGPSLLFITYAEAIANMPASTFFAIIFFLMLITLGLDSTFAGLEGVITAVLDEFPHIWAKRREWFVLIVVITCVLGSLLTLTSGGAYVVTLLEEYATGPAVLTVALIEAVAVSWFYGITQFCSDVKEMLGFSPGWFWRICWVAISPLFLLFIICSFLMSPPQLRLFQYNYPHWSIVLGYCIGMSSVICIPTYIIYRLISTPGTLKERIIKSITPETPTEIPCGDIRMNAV
Description: The cortices are homogenised using a Polytron in 40 volumes (weight/volume) of cold Tris-HCl (50 mM, pH 7.4) incubation buffer containing 120 mM NaCl and 5 mM KCl and are then centrifuged for a first time. The sediment is resuspended in the same buffer, incubated for 10 minutes at 37° C. and then re-centrifuged. The membranes are washed a further two times and the sediment is then resuspended in an appropriate volume of incubation buffer. […] Non-specific binding is determined with 10 μM fluoxetine. At the end of the incubation period, the samples are filtered through Unifilter GF/B type filters pretreated with PEI (0.5%) and washed several times with the incubation buffer. The radioactivity retained on the filters is counted after addition of scintillation liquid, with the aid of a scintillation counter. […] The results are expressed as pKi=−log Ki.

human NK1 receptors = target: T2, human NK1 receptors (Homo sapiens, UniProt P25103); experiment: hNK1 binding ([3H]-Substance P competition on IM9 human lymphoblast cells); settings: read-out: pKi NK1 (converted)
T2 construct: IM9 human lymphoblast cells endogenously expressing NK1 receptors; endogenous in cells; host or cells: IM9 human lymphoblast cells
T2 sequence (P25103 whole entry): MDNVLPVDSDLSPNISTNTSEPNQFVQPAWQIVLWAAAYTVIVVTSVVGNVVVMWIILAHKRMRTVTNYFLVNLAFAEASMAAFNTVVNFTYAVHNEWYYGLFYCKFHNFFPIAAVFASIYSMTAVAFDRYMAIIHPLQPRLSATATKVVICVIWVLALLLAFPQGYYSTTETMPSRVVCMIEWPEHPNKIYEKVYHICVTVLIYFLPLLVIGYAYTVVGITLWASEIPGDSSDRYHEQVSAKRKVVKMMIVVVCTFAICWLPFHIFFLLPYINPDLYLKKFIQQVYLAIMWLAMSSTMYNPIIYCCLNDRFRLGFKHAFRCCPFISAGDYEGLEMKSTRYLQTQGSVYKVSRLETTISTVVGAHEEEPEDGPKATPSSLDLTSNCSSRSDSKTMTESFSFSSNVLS
Description: IM9 human lymphoblast cells endogenously expressing NK1 receptors are centrifuged and taken up in the incubation buffer containing 50 mM TRIS, 150 mM NaCl, 4 mM CaCl2, protease inhibitors at 1/100^e (Cocktail SIGMA P8340) and 0.2% BSA. The volume of incubation buffer is determined so as to obtain a concentration of 5×10^6 cells/ml. […] Non-specific binding is determined in the presence of 1 μM GR 205171.
At the end of the incubation period, the samples ate filtered through Unifilter GF/B type filters pretreated with PEI (0.1%) and washed several times with the filtration buffer ([…], 150 mM NaCl, 4 mM CaCl2). The radioactivity retained on the filters is measured by counting after addition of scintillation liquid to the filters. The counts are […] analysed by non-linear regression, allowing the isotherms to be plotted and the IC50 values to be determined. […] The results are expressed as pKi (−log Ki).

Compound	Ki [1] [nM]	Ki (human NK1 receptors) [nM]
CN(Cc1cc(Cl)cc(Cl)c1)C(=O)C1(N2CCNCC2)CCc2ccccc21 (racemic) [Example 85, (1RS)-N-(3,5-Dichlorobenzyl)-N-methyl-1-(1-piperazinyl)-1-indan-carboxamide dihydrochloride]	93.3	
CN(Cc1cc(F)cc(F)c1)C(=O)C1(N2CCNCC2)CCc2ccccc21 (racemic) [Example 68, (1RS)-N-(3,5Difluorobenzyl)-N-methyl-1-(1-piperazinyl)-1-indan-carboxamide dihydrochloride]	33.9	
Cc1cc(C)cc(COCC2(N3CCNCC3)CCc3ccccc32)c1 (racemic) [Example 2, 1-[(1RS)-1-(3,5-Dimethylbenzyloxymethyl)indan-1-yl]piperazine dihydrochloride]	53.7	18.2
Cc1cc(C)cc(COCC2(N3CCNCC3)Cc3ccccc3C2)c1 [Example 3, 1-[2-(3,5-Dimethylbenzyloxymethyl)indan-2-yl]piperazine dihydrochloride]	63.1	162
O=C(NCc1cc(C(F)(F)F)cc(C(F)(F)F)c1)C1(N2CCNCC2)Cc2ccccc2C1 [Example 5, N-[3,5-Bis(trifluoromethyl)benzyl]-2-(1-piperazinyl)-2-indan-carboxamide dihydrochloride]		398
Brc1cc(Br)cc(COCC2(N3CCNCC3)CCc3ccccc32)c1 (racemic) [Example 1, 1-[(1RS)-1-(3,5Dibromobenzyloxymethyl)indan-1-yl]piperazine dihydrochloride]	245	3.39
CN(Cc1cc(F)cc(C(F)(F)F)c1)C(=O)C1(N2CCNCC2)CCc2ccccc21 (racemic) [Example 69, (1RS)-N-[3-Fluoro-5(trifluoromethyl)benzyl]-N-methyl-1-(1-piperazinyl)-1-indancarboxamide dihydrochloride]	151	
CN(Cc1cc(F)cc(Cl)c1)C(=O)C1(N2CCNCC2)Cc2ccccc2C1 [Example 135, N-(3-Chloro-5-fluorobenzyl)-N-methyl-2-(1-piperazinyl)-2-indan-carboxamide dihydrochloride]	43.7	
CN(Cc1cc(Cl)cc(Cl)c1)CC1(N2CCNCC2)Cc2ccccc2C1 [Example 79, N-(3,5-Dichlorobenzyl)N-methyl-[2-(1-piperazinyl)indan-2-yl]-methanamine trihydrochloride]		513
CN(Cc1ccccc1)C(=O)C1(N2CCNCC2)CCc2ccccc21 (racemic) [Example 11, (1RS)-N-Benzyl-N-methyl-1-(1-piperazinyl)-1-indancarboxamide dihydrochloride]		490
Fc1cc(F)cc(COCC2(N3CCNCC3)CCc3ccccc32)c1 (racemic) [Example 70, (1RS)-1-[1-(3,5Difluorobenzyloxymethyl)indan-1-yl]piperazine dihydrochloride]	3.24	
